Values of other authors in patent US12358889B2, “Vaporizable alkaloid compositions and methods of use thereof” (Ready Mix Naturals, LLC, priority 2023, dated 2025).

Tests used:
[1] = target: TRPV1 (Homo sapiens, UniProt Q8NER1); conditions: among phytocannabinoids
[2] = target: TRPA1 (Homo sapiens, UniProt O75762)
[3] = target: T1, TRPV2 (Homo sapiens, UniProt Q9Y5S1); conditions: among phytocannabinoids
T1 sequence (Q9Y5S1 1-764): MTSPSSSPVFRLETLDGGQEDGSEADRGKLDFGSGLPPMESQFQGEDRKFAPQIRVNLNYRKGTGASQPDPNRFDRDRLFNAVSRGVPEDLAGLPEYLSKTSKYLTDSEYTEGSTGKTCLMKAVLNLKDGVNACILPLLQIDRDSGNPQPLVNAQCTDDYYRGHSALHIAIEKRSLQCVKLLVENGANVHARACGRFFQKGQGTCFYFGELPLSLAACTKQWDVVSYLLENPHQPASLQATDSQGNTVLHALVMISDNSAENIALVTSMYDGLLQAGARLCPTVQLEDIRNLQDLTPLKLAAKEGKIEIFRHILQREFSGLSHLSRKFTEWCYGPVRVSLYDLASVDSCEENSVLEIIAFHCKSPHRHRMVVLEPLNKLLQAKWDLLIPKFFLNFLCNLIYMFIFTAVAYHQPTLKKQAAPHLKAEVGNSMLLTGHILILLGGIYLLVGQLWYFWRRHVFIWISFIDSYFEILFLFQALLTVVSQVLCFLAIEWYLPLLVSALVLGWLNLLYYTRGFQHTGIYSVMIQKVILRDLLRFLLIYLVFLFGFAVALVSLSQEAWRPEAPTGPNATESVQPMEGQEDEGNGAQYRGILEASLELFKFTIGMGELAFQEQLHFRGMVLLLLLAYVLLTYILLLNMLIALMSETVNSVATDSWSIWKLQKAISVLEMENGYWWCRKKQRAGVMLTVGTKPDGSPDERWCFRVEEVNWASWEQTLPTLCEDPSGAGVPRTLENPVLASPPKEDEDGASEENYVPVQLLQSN

Sequence of TRPA1 (O75762 whole entry, species assumed): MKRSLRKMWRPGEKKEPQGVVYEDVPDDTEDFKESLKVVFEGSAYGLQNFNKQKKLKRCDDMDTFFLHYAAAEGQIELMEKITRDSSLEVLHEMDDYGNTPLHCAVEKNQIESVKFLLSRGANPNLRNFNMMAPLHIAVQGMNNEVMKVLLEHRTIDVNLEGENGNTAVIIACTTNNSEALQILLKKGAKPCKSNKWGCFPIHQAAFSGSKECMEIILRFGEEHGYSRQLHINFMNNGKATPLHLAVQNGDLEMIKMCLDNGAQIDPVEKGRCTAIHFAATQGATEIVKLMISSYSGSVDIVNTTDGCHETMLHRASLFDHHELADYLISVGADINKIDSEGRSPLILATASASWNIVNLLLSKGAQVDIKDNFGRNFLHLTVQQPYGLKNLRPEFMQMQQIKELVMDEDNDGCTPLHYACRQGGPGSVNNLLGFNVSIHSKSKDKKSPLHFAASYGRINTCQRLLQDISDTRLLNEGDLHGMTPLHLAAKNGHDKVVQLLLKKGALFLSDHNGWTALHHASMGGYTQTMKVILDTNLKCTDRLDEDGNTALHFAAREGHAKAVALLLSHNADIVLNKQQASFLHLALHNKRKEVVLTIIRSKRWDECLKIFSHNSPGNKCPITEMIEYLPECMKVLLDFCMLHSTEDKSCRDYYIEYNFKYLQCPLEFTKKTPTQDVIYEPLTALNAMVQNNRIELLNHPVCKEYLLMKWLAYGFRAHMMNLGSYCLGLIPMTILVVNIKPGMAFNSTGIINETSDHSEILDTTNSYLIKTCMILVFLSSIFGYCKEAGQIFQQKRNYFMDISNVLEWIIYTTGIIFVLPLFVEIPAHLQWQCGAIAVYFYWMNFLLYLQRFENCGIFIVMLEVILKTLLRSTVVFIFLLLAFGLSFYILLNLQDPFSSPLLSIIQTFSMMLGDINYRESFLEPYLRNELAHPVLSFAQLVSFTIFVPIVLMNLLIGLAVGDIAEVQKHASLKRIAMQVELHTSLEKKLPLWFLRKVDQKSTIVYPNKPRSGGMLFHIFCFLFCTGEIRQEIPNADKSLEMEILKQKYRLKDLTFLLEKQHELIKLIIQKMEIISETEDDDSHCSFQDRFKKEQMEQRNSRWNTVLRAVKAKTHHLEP
Sequence of TRPV1 (Q8NER1 whole entry, species assumed): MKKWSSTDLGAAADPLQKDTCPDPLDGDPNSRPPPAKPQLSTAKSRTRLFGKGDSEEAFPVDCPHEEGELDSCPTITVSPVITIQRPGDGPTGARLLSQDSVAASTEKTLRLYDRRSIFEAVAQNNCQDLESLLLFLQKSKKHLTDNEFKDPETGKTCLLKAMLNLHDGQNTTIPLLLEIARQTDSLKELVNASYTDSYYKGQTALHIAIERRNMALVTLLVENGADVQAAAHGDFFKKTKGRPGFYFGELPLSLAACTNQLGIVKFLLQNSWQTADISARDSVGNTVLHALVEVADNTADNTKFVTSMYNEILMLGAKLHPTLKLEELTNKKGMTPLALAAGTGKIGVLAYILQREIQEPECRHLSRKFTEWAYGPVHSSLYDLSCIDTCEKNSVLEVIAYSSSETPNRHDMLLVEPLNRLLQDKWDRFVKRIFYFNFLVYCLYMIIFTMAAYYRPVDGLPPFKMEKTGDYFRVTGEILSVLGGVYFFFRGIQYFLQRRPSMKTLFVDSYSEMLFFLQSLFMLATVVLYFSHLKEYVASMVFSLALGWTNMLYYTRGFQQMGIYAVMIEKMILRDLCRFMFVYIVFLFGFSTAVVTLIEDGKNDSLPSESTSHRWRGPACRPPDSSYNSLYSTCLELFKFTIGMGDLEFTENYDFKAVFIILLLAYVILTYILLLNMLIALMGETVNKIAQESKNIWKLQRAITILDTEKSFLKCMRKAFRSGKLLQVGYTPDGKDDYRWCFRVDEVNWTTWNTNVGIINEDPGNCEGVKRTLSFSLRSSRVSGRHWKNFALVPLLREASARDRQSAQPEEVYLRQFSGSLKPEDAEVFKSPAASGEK

Structure (SMILES) | agonism of TRPV1 [1] | activation of TRPA1 [2] | activation of TRPV2 [3]
C=C(C)[C@@H]1CCC(C)=C[C@H]1c1c(O)cc(CCCCC)cc1O [CBD, cannabidiol] | most potent and efficacious phytocannabinoid agonist of TRPV1 | – | –
CN1CCCC1c1cccnc1 (stereo not shown) [nicotine] | – | known activator of TRPA1 | –
CCCCCc1cc(O)c2c(c1)OC(C)(C)[C@@H]1CCC(C)=C[C@@H]21 [Δ^9-THC, Δ^9-tetrahydrocannabinol] | – | also activates TRPA1 | most potent phytocannabinoid for activating TRPV2
